Converted amounts (≈) assume the structure as drawn. Read-outs that look alike come from different tables or passages of the source.
Key:
[1] = Pharmacokinetics following a single oral dose in male Sprague-Dawley rats; type: in vivo; conditions: rat, single po dose (nominal 10 mg/kg; actual dose per row in column Dose po), 10% DMSO/10% cremophor/80% SWFI, plasma
Method: Pharmacokinetic studies of the compounds in Table 13 were performed to assess the pharmacokinetics following a single oral dose in male Sprague-Dawley rats. Two rats were given a single po dose of 5 mL/kg of a nominal 2 mg/mL (10 mg/kg) composition of test compound in vehicle. Following dosing, blood samples were collected over a period of 24 hours. Sample times were 5, 15 and 30 minutes then 1, 2, 4, 6, 8 and 12 hours. Following collection, blood samples were centrifuged and the plasma fraction analysed for concentration of test compound by LCMS.

[2] = Intrinsic clearance in rat liver microsomes; type: in vitro ADME; conditions: rat liver microsomes 0.5 mg/mL, 5 μM test compound, 37° C.; read-out: rat liver microsome (Clint μL/min/mg protein)
Method: (§1) Rat or human liver microsomes (0.5 mg/mL; Corning) were incubated with 5 μM test compound at 37° C. on a shaking platform (150 rpm). Samples were taken at 0, 6, 12, 18, 24 and 60 min and test compound concentrations were determined by LCMS against a calibration curve.

plasmin = plasmin (Homo sapiens (Human), UniProt P00747); test: Determination of enzyme selectivity: plasmin; type: biochemical; conditions: substrate at Km concentration
Method: (§3) Human serine protease enzymes plasmin, thrombin and trypsin were assayed for enzymatic activity using an appropriate fluorogenic substrate. Protease activity was measured by monitoring the accumulation of liberated fluorescence from the substrate over 5 minutes. The linear rate of fluorescence increase per minute was expressed as percentage (%) activity. The Km for the cleavage of each substrate was determined by standard transformation of the Michaelis-Menten equation.

trypsin = test: Determination of enzyme selectivity: trypsin; type: biochemical, human; conditions: substrate at Km concentration
Method: as §3

Human KLK1 = Human KLK1 (Homo sapiens (Human), UniProt P06870); test: Determination of the IC50 for KLK1; type: biochemical; conditions: 25° C., substrate H-DVal-Leu-Arg-AFC
Method: (§2) Human KLK1 (Callbiochem) was incubated at 25° C. with the fluorogenic substrate H-DVal-Leu-Arg-AFC and various concentrations of the test compound. Residual enzyme activity (initial rate of reaction) was determined by measuring the change in […] at 410 nm and the IC50 value for the test compound was determined.

Human Factor XIIa = Human Factor XIIa (Homo sapiens (Human), UniProt P00748); test: Factor XIIa inhibitory activity in vitro; type: biochemical; conditions: 25° C., substrate H-DPro-Phe-Arg-AFC; read-out: IC50 (human FXIIa)
Method: as §2, with “Factor XIIa (Enzyme Research Laboratories)” for “KLK1 (Callbiochem)”, “H-DPro-Phe-Arg-AFC” for “H-DVal-Leu-Arg-AFC”

[3] = Intrinsic clearance in human liver microsomes; type: in vitro ADME; conditions: human liver microsomes 0.5 mg/mL, 5 μM test compound, 37° C.; read-out: Human liver microsome (Clint μL/min/mg protein)
Method: as §1

[4] = Plasma protein binding (PPB), rapid equilibrium dialysis, human plasma; type: in vitro ADME; conditions: 5 μM test compound, dialysis 5 hrs at 37° C.
[5] = Plasma protein binding (PPB), rapid equilibrium dialysis, rat plasma; type: in vitro ADME; conditions: 5 μM test compound, dialysis 5 hrs at 37° C.
Human plasma kallikrein = Human plasma kallikrein (Homo sapiens (Human), UniProt P03952); test: Determination of the IC50 for plasma kallikrein; type: biochemical; conditions: 25° C., substrate H-DPro-Phe-Arg-AFC; read-out: IC50 (human PKal)
Method: as §2, with “plasma kallikrein (Protogen)” for “KLK1 (Callbiochem)”, “H-DPro-Phe-Arg-AFC” for “H-DVal-Leu-Arg-AFC”

Human FXIa = Human FXIa (Homo sapiens (Human), UniProt P03951); test: Determination of the % inhibition / IC50 for FXIa; type: biochemical; conditions: for inhibition at 40 µM: 40 μM test compound, read-out: % Inhibition @ 40 μM (human FXIa); for IC50: 25° C., substrate Z-Gly-Pro-Arg-AFC
Method: FXIa inhibitory activity in vitro was determined using standard published methods (see e.g. Johansen et al., Int. J. Tiss. Reac. 1986, 8, 185; Shori et al., Biochem. Pharmacol., 1992, 43, 1209; Sturzebecher et al., Biol. Chem. Hoppe-Seyler, 1992, 373, 1025). […]

[6] = Predicted plasma clearance (Clp), well-stirred model, rat; type: in vitro ADME; conditions: percentage of hepatic blood flow
thrombin = thrombin (Homo sapiens (Human), UniProt P00734); test: Determination of enzyme selectivity: thrombin; type: biochemical; conditions: substrate at Km concentration
Method: as §3

[7] = Predicted plasma clearance (Clp), well-stirred model, human; type: in vitro ADME; conditions: percentage of hepatic blood flow
[8] = In vitro permeability, Caco-2 model for oral absorption; type: in vitro ADME; conditions: human, apical to basolateral, 50 μM test compound, 37° C.
Summary of the method: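 Caco-2 monolayers grown on collagen inserts for 3 days, with 50 μM compound added apically and incubated 1 hour at 37° C with shaking. Apical-to-basolateral transport measured by LCMS in both compartments. Monolayer integrity checked by TEER before and after, and by Lucifer Yellow flux.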

[9] = Solubility in water and 0.1N HCl (aq); type: physicochemical; conditions: thermodynamic from solid, incubated at 1 mg/mL, 37° C.
Method: Solubility was determined in water and 0.1N HCl (aq). Test compounds were incubated at 1 mg/mL for 24 hrs at 37° C. on a shaking platform (500 rpm). Samples were taken at 1, 4 and 24 hrs and centrifuged at 15,000 g for 10 min. Test compound concentration in the supernatant was determined by LCMS against a standard curve.

Human FXIa, sequence (P03951 388-625): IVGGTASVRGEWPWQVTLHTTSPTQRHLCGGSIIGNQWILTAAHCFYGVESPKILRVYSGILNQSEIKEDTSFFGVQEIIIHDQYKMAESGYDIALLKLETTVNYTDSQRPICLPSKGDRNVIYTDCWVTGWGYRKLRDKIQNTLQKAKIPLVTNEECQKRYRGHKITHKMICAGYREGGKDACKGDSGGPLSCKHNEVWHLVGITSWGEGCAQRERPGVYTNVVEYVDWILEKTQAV
Human FXIa, sequence (P03951 19-387): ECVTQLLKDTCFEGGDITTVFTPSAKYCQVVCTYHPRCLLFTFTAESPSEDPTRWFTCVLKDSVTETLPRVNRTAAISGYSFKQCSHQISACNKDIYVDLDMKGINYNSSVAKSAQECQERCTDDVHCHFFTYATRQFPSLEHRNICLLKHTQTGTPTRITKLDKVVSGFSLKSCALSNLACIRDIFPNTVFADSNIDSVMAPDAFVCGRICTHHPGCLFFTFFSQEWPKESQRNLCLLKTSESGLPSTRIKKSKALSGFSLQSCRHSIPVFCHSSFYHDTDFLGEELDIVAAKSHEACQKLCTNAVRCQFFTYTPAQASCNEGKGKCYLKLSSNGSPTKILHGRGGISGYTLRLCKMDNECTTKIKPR
Human KLK1, sequence (P06870 25-262): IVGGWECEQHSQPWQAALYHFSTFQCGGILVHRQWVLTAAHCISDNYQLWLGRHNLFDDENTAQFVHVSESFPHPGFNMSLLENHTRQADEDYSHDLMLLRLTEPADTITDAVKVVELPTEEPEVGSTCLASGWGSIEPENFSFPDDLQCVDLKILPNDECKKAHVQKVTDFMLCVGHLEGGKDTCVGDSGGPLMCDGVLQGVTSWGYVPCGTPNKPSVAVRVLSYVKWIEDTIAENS
Human Factor XIIa, sequence (P00748 373-615): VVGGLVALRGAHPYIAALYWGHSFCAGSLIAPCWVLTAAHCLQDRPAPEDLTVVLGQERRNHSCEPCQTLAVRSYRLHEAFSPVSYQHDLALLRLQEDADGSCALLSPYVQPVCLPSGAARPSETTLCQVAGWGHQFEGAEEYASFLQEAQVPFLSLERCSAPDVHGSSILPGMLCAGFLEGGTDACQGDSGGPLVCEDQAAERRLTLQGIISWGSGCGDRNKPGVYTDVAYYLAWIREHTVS
plasmin, sequence (P00747 581-810): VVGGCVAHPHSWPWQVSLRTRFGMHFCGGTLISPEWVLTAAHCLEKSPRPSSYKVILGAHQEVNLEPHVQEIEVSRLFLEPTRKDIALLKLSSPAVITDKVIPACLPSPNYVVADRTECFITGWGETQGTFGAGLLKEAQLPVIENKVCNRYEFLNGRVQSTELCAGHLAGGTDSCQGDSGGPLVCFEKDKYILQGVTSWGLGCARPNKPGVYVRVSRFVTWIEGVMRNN
plasmin, sequence (P00747 97-580): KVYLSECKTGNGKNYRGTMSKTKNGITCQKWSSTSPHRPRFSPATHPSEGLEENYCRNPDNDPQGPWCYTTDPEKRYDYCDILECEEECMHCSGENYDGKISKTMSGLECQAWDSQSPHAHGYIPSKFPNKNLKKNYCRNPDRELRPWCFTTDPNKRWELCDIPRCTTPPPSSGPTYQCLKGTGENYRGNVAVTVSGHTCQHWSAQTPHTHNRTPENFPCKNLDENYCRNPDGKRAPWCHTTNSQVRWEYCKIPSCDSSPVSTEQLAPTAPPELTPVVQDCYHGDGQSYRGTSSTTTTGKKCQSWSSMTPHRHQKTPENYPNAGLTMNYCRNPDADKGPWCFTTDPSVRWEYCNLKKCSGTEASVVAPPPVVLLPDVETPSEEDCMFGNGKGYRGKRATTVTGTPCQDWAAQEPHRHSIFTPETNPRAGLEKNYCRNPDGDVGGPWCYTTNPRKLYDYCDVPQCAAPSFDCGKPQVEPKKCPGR
Human plasma kallikrein, sequence (P03952 391-638): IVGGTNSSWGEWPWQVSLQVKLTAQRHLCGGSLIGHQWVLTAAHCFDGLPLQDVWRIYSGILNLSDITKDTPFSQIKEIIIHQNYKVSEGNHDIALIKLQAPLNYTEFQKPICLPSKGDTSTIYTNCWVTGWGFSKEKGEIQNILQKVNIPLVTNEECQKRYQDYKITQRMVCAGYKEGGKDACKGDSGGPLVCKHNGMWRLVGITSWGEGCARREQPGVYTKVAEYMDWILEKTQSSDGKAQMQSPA
Human plasma kallikrein, sequence (P03952 20-390): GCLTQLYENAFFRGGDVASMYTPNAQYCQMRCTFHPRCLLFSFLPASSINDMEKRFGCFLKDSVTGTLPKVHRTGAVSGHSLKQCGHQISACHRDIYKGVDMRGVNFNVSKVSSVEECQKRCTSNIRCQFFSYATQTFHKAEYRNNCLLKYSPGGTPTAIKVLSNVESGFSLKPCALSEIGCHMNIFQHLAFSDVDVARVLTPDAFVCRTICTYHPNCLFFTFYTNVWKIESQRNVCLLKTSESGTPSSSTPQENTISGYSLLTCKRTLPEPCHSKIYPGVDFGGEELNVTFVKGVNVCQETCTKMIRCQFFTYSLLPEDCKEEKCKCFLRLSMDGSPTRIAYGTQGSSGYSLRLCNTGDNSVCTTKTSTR

solubility ([9]; simulated gastric fluid, 0.1N HCl (aq), read-out: Solubility 0.1N HCl (aq)) [µg/mL]	solubility ([9]; water, read-out: Solubility Water) [µg/mL]	SMILES	Cmax [1] [ng/mL]	Tmax [1] [min]	microsomal CLint at 5 μM [2] [µL/min/mg]	IC50 (plasmin) [µM]	IC50 (trypsin) [µM]	IC50 (Human KLK1) [µM]	IC50 (Human Factor XIIa) [µM]	microsomal CLint at 5 μM [3] [µL/min/mg]	fraction unbound at 5 h, 5 μM [4]	fraction unbound at 5 h, 5 μM [5]	IC50 (Human plasma kallikrein) [µM]	inhibition at 40 µM (Human FXIa) [%]	IC50 (Human FXIa) [µM]	Predicted in vivo rat Clp (% LBF) [6] [% LBF]	IC50 (thrombin) [µM]	Predicted in vivo human Clp (% LBF) [7] [% LBF]	Papp at 1 h, 50 μM [8] [×10⁻⁶ cm/s]
–	–	COc1ccnc(CNC(=O)c2cn(Cc3ccc(Cn4ccccc4=O)cc3)nc2C(F)(F)F)c1F [Example 6, N-[(3-fluoro-4-methoxypyridin-2-yl)methyl]-1-({4-[(2-oxopyridin-1-yl)methyl]phenyl}methyl)-3-(trifluoromethyl)pyrazole-4-carboxamide]	1800	30	30	> 40	> 40	> 4	> 4	42	0.13	0.05	0.0032	2	> 40	6	> 40	24	17
940 (≈ 1840 µM)	290 (≈ 569 µM)	COCc1nn(Cc2ccc(Cn3cc(F)ccc3=O)cc2)cc1C(=O)NCc1nccc(OC)c1F [Example 30, 1-({4-[(5-fluoro-2-oxopyridin-1-yl)methyl]phenyl}methyl)-N-[(3-fluoro-4-methoxypyridin-2-yl)methyl]-3-(methoxymethyl)pyrazole-4-carboxamide]	756	38	22	> 40	> 40	> 40	> 40	20	0.18	0.03	0.0067	7	> 40	1	> 40	12	24

From patent US11180484B2, “Pyrazole derivatives as plasma kallikrein inhibitors” (KALVISTA PHARMACEUTICALS LIMITED, priority 2016, dated 2021)
